Measurements from PubChem BioAssay AID256 (DTP/NCI, 2004).
Inconclusive results and toxic doses are left out.

Test system: CD2F1 mice, L1210 leukemia ip, survival T/C
Assay: NCI In Vivo Anticancer Drug Screen. Data for tumor model L1210 Leukemia (intraperitoneal) in CD2F1 (CDF1) mice
Settings: higher = longer survival
Outline: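 Mice carrying a transplanted tumor received test compound or vehicle alone. The value is the measurement in the treated group divided by that in the vehicle-treated control group.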

[1] = endpoint: mean survival time, dose: 100.0 mg/kg/injection, schedule: Q04DX003 (ip), vehicle: saline
[2] = endpoint: mean survival time, dose: 200.0 mg/kg/injection, schedule: Q04DX003 (ip), vehicle: saline
[3] = endpoint: mean survival time, dose: 50.0 mg/kg/injection, schedule: Q01DX009 (ip), vehicle: saline with Tween-80
[4] = endpoint: mean survival time, dose: 100.0 mg/kg/injection, schedule: Q01DX009 (ip), vehicle: saline with Tween-80
[5] = endpoint: mean survival time, dose: 100.0 mg/kg/injection, schedule: Q04DX003 (ip), vehicle: saline with Tween-80
[6] = endpoint: mean survival time, dose: 200.0 mg/kg/injection, schedule: Q04DX003 (ip), vehicle: saline with Tween-80
[7] = endpoint: mean survival time, dose: 75.0 mg/kg/injection, schedule: Q01DX001 (ip), vehicle: other
[8] = endpoint: mean survival time, dose: 150.0 mg/kg/injection, schedule: Q01DX001 (ip), vehicle: other

Cn1c(=O)c2c(ncn2C)n(C)c1=O.[Cl][Pt]([Cl])[Cl]
T/C (endpoint: mean survival time, dose: 3.13 mg/kg/injection, schedule: Q04DX003 (ip), vehicle: saline): 112 % of control
T/C (endpoint: mean survival time, dose: 3.13 mg/kg/injection, schedule: Q04DX003 (ip), vehicle: water): 98 % of control
T/C (endpoint: mean survival time, dose: 6.25 mg/kg/injection, schedule: Q04DX003 (ip), vehicle: saline): 104 % of control
T/C (endpoint: mean survival time, dose: 6.25 mg/kg/injection, schedule: Q04DX003 (ip), vehicle: water): 95 % of control
T/C (endpoint: mean survival time, dose: 12.5 mg/kg/injection, schedule: Q04DX003 (ip), vehicle: saline): 106 % of control
T/C (endpoint: mean survival time, dose: 12.5 mg/kg/injection, schedule: Q04DX003 (ip), vehicle: water): 104 % of control
T/C (endpoint: mean survival time, dose: 25.0 mg/kg/injection, schedule: Q04DX003 (ip), vehicle: saline): 102 % of control
T/C (endpoint: mean survival time, dose: 25.0 mg/kg/injection, schedule: Q04DX003 (ip), vehicle: water): 102 % of control
T/C (endpoint: mean survival time, dose: 50.0 mg/kg/injection, schedule: Q04DX003 (ip), vehicle: saline): 106 % of control
T/C (endpoint: mean survival time, dose: 50.0 mg/kg/injection, schedule: Q04DX003 (ip), vehicle: water): 104 % of control
T/C [1]: 112 % of control
T/C (endpoint: mean survival time, dose: 100.0 mg/kg/injection, schedule: Q04DX003 (ip), vehicle: water): 118 % of control
T/C [2]: 111 % of control

CN(C)CCSCC(=O)N1c2ccccc2Sc2ccc(Cl)cc21
T/C [3]: 103 % of control
T/C [4]: 101 % of control
T/C [5]: 98 % of control
T/C [6]: 98 % of control

CS(=N)(=O)c1ccccc1 (centres undefined)
T/C [1]: 105 % of control
T/C [2]: 103 % of control
T/C (endpoint: mean survival time, dose: 400.0 mg/kg/injection, schedule: Q04DX003 (ip), vehicle: saline): 94 % of control

COc1ccc(NC2=NCCS2)cc1
T/C [5]: 94 % of control
T/C [6]: 101 % of control

Nc1nc(N)n(-c2ccccn2)n1
T/C [7]: 101 % of control
T/C [8]: 97 % of control

C[C@@H]1C[C@@]2(C)[C@@H](CC[C@@H]3[C@@H]2CC[C@@]2(C)[C@H]3CC[C@]2(C)O)CC1=O
T/C (endpoint: mean survival time, dose: 25.0 mg/kg/injection, schedule: Q01DX009 (ip), vehicle: saline with Tween-80): 95 % of control
T/C [3]: 95 % of control
T/C [4]: 94 % of control
T/C [5]: 91 % of control

Nc1cc(N)c([N+](=O)[O-])cc1[N+](=O)[O-]
T/C [5]: 100 % of control
T/C [6]: 91 % of control
T/C (endpoint: mean survival time, dose: 400.0 mg/kg/injection, schedule: Q04DX003 (ip), vehicle: saline with Tween-80): 108 % of control

COc1cc2ccc3c4cc5c(cc4c[n+](C)c3c2cc1OC)OCO5
T/C (endpoint: mean survival time, dose: 10.0 mg/kg/injection, schedule: Q01DX009 (ip), vehicle: Klucel (hydroxypropylcellulose) (HPC)): 119 % of control
T/C (endpoint: mean survival time, dose: 20.0 mg/kg/injection, schedule: Q01DX009 (ip), vehicle: Klucel (hydroxypropylcellulose) (HPC)): 119 % of control
T/C (endpoint: mean survival time, dose: 40.0 mg/kg/injection, schedule: Q01DX009 (ip), vehicle: Klucel (hydroxypropylcellulose) (HPC)): 121 % of control
T/C (endpoint: mean survival time, dose: 80.0 mg/kg/injection, schedule: Q01DX009 (ip), vehicle: Klucel (hydroxypropylcellulose) (HPC)): 115 % of control
T/C (endpoint: mean survival time, dose: 160.0 mg/kg/injection, schedule: Q01DX009 (ip), vehicle: Klucel (hydroxypropylcellulose) (HPC)): 97 % of control

O=c1[nH]ccc2occc12
T/C [3]: 101 % of control
T/C [4]: 102 % of control
T/C [5]: 105 % of control
T/C [6]: 109 % of control

O=C(NO)c1cccc(O)c1O
T/C (endpoint: median survival time, dose: 200.0 mg/kg/injection, schedule: Q01DX009 (ip), vehicle: distilled water + Tween-80): 162 % of control
T/C (endpoint: median survival time, dose: 300.0 mg/kg/injection, schedule: Q01DX009 (ip), vehicle: distilled water + Tween-80): 170 % of control
T/C (endpoint: median survival time, dose: 450.0 mg/kg/injection, schedule: Q01DX009 (ip), vehicle: distilled water + Tween-80): 104 % of control

CCN(CC)c1ccc(N=Nc2cc(Cl)ccc2Cl)c(NC(=O)CSC(C)=O)c1
T/C (endpoint: mean survival time, dose: 100.0 mg/kg/injection, schedule: Q04DX003 (ip), vehicle: other): 94 % of control
T/C (endpoint: mean survival time, dose: 200.0 mg/kg/injection, schedule: Q04DX003 (ip), vehicle: other): 100 % of control
T/C (endpoint: mean survival time, dose: 400.0 mg/kg/injection, schedule: Q04DX003 (ip), vehicle: other): 97 % of control

CN(C)N=Nc1c(-c2cccs2)n[nH]c1C(F)(F)F
T/C [7]: 103 % of control
T/C [8]: 103 % of control
T/C (endpoint: mean survival time, dose: 300.0 mg/kg/injection, schedule: Q01DX001 (ip), vehicle: other): 105 % of control
